US20240368135A1 (VERTEX PHARMACEUTICALS INCORPORATED, priority 2021, published 2024)
Read-outs that look alike come from different tables or passages of the source.

Target: human NaV 1.8 (Homo sapiens, UniProt Q9Y5Y9)
Test: E-VIPR assay detecting and measuring NaV inhibition properties
Type: cell-based
Conditions: HEK cells expressing truncated human NaV 1.8
Outline: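 Membrane potential was followed by coumarin/oxonol FRET during electrical field stimulation of matrigel-seeded HEK cells carrying truncated human NaV1.8 plus KIR2.1. Dosing used 11 points, 3-fold steps, top 300 nM final, 0.625% DMSO, with or without 25% human serum.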

[1] = no human serum, read-out: IC50 in the E-VIPR Assay

Chain of human NaV 1.8 (Q9Y5Y9 126-399 limits assumed): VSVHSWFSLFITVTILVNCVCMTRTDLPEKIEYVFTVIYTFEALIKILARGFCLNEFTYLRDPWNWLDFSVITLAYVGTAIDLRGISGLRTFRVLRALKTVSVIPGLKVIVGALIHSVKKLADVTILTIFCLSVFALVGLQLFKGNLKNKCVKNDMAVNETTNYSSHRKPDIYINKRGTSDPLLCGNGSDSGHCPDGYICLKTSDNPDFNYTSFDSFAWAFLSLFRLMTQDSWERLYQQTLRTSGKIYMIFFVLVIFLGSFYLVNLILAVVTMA
Chain of human NaV 1.8 (Q9Y5Y9 660-890 limits assumed): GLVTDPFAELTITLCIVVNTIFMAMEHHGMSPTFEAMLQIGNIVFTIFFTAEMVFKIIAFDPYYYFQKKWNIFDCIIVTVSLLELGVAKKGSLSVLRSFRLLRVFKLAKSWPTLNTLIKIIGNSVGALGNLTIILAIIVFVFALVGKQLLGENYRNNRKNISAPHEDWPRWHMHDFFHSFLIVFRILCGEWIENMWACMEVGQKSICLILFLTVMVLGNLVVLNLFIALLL
Chain of human NaV 1.8 (Q9Y5Y9 1148-1722 limits assumed): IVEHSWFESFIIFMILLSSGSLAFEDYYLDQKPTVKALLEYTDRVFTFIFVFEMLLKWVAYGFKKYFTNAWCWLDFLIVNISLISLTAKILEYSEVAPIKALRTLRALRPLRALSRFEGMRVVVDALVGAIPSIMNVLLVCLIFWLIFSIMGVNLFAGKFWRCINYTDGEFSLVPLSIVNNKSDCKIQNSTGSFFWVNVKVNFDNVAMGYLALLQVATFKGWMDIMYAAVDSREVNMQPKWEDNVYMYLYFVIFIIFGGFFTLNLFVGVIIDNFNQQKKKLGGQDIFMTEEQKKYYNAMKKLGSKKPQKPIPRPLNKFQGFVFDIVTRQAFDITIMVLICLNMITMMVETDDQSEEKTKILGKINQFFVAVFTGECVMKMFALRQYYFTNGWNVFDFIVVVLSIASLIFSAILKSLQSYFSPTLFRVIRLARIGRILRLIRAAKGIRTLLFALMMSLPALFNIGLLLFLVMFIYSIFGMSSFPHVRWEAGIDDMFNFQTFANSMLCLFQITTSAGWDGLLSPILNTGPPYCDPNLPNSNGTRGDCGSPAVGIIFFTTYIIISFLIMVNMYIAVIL

Structure (SMILES)	IC50 [1] [nM]	IC50 (in the presence of human serum (compound numbers followed by *), read-out: IC50 in the E-VIPR Assay, performed in the presence of human serum) [nM]
COc1c([C@H]2[C@H](C(=O)Nc3cc(C(O)CCO)ncc3F)O[C@@](C)(C(F)(F)F)[C@H]2C)ccc(F)c1F (single isomer, unassigned) [Compound 256, rel-(2R*,3S*,4S*,5R*)-3-(3,4-difluoro-2-methoxyphenyl)-N-(2-(1,3-dihydroxypropyl)-5-fluoropyridin-4-yl)-4,5-dimethyl-5-(trifluoromethyl)tetrahydrofuran-2-carboxamide]	< 10	–
COc1c([C@H]2[C@H](C(=O)Nc3cn(C4COC4)nc3C)O[C@@](C)(C(F)(F)F)[C@H]2C)ccc(F)c1F (single isomer, unassigned) [Compound 330]	< 10	–
COc1c([C@H]2[C@H](C(=O)Nc3cnn(C4COC4)c3C)O[C@@](C)(C(F)(F)F)[C@H]2C)ccc(F)c1F (single isomer, unassigned) [Compound 331]	10 to 100	–
COc1c([C@H]2[C@H](C(=O)Nc3ccc(S(C)(=N)=O)nc3)O[C@@](C)(C(F)(F)F)[C@H]2C)ccc(F)c1F (single isomer, unassigned) [Compound 336, rel-(2R*,3S*,4S*,5R*)-3-(3,4-difluoro-2-methoxyphenyl)-4,5-dimethyl-N-(6-(S-methylsulfonimidoyl)-pyridin-3-yl)-5-(trifluoromethyl)-tetrahydrofuran-2-carboxamide]	< 10	–
COc1c([C@H]2[C@H](C(=O)Nc3ccc(S(C)(=N)=O)nc3)O[C@@](C)(C(F)(F)F)[C@H]2C)ccc(F)c1F (single isomer, unassigned) [Compound 337, rel-(2R*,3S*,4S*,5R*)-3-(3,4-difluoro-2-methoxyphenyl)-4,5-dimethyl-N-(6-(S-methylsulfonimidoyl)-pyridin-3-yl)-5-(trifluoromethyl)-tetrahydrofuran-2-carboxamide]	10 to 100	–
CN=S(C)(=O)c1ccc(NC(=O)[C@@H]2O[C@@](C)(C(F)(F)F)[C@@H](C)[C@H]2c2ccc(F)c(F)c2OC)cn1 (single isomer, unassigned) [Compound 338]	10 to 100	–
COc1c([C@H]2[C@H](C(=O)Nc3ccnc(C4COCCN4)c3)O[C@@](C)(C(F)(F)F)[C@H]2C)ccc(F)c1F (single isomer, unassigned) [Compound 342, rel-(2R*,3S*,4S*,5R*)-3-(3,4-difluoro-2-methoxyphenyl)-4,5-dimethyl-N-(2-(morpholin-3-yl)pyridin-4-yl)-5-(trifluoromethyl)-tetrahydrofuran-2-carboxamide]	10 to 100	–
COc1c([C@H]2[C@H](C(=O)Nc3ccnc(C4(N)CCOC4)c3)O[C@@](C)(C(F)(F)F)[C@H]2C)ccc(F)c1F (single isomer, unassigned) [Compound 346, rel-(2R*,3S*,4S*,5R*)-N-(2-(3-aminotetrahydrofuran-3-yl)pyridin-4-yl)-3-(3,4-difluoro-2-methoxyphenyl)-4,5-dimethyl-5-(trifluoromethyl)-tetrahydrofuran-2-carboxamide]	< 10	–
COc1c([C@H]2[C@H](C(=O)Nc3cc(C4(N)CCOC4)ncc3F)O[C@@](C)(C(F)(F)F)[C@H]2C)ccc(F)c1F (single isomer, unassigned) [Compound 348, rel-(2R*,3S*,4S*,5R*)-N-(2-(3-aminotetrahydrofuran-3-yl)-5-fluoropyridin-4-yl)-3-(3,4-difluoro-2-methoxyphenyl)-4,5-dimethyl-5-(trifluoromethyl)-tetrahydrofuran-2-carboxamide]	10 to 100	–
COc1c([C@H]2[C@H](C(=O)Nc3cc(C4(N)CCOC4)ncc3F)O[C@@](C)(C(F)(F)F)[C@H]2C)ccc(F)c1F (single isomer, unassigned) [Compound 349, rel-(2R*,3S*,4S*,5R*)-N-(2-(3-aminotetrahydrofuran-3-yl)-5-fluoropyridin-4-yl)-3-(3,4-difluoro-2-methoxyphenyl)-4,5-dimethyl-5-(trifluoromethyl)-tetrahydrofuran-2-carboxamide]	< 10	–
COc1c([C@H]2[C@H](C(=O)Nc3cc(C4CNCCO4)ncc3F)O[C@@](C)(C(F)(F)F)[C@H]2C)ccc(F)c1F (single isomer, unassigned) [Compound 350, rel-(2R*,3S*,4S*,5R*)-3-(3,4-difluoro-2-methoxyphenyl)-N-(5-fluoro-2-(morpholin-2-yl)pyridin-4-yl)-4,5-dimethyl-5-(trifluoromethyl)-tetrahydrofuran-2-carboxamide]	10 to 100	–
COCC(C)(N)c1cc(NC(=O)[C@@H]2O[C@@](C)(C(F)(F)F)[C@@H](C)[C@H]2c2ccc(F)c(F)c2OC)c(F)cn1 (single isomer, unassigned) [Compound 354, rel-(2R*,3S*,4S*,5R*)-N-(2-(2-amino-1-methoxypropan-2-yl)-5-fluoropyridin-4-yl)-3-(3,4-difluoro-2-methoxyphenyl)-4,5-dimethyl-5-(trifluoromethyl)-tetrahydrofuran-2-carboxamide]	< 10	–
COc1c([C@H]2[C@H](C(=O)Nc3cc(C(N)C(C)(C)OC)ncc3F)O[C@@](C)(C(F)(F)F)[C@H]2C)ccc(F)c1F (single isomer, unassigned) [Compound 356, rel-(2R*,3S*,4S*,5R*)-N-(2-(1-amino-2-methoxy-2-methylpropyl)-5-fluoropyridin-4-yl)-3-(3,4-difluoro-2-methoxyphenyl)-4,5-dimethyl-5-(trifluoromethyl)-tetrahydrofuran-2-carboxamide]	10 to 100	–

Further lines, results first:

IC50 [1] [nM]	IC50 (in the presence of human serum (compound numbers followed by *), read-out: IC50 in the E-VIPR Assay, performed in the presence of human serum) [nM]	Structure (SMILES)
< 10	–	COc1c([C@H]2[C@H](C(=O)Nc3ccnc(C(CO)OC)c3)O[C@@](C)(C(F)(F)F)[C@H]2C)ccc(F)c1F (single isomer, unassigned) [Compound 248, rel-(2R*,3S*,4S*,5R*)-3-(3,4-difluoro-2-methoxyphenyl)-N-(2-(2-hydroxy-1-methoxyethyl)pyridin-4-yl)-4,5-dimethyl-5-(trifluoromethyl)tetrahydrofuran-2-carboxamide]
–	< 10	COc1c([C@H]2[C@H](C(=O)Nc3ccnc(C(CO)OC)c3)O[C@@](C)(C(F)(F)F)[C@H]2C)ccc(F)c1F (single isomer, unassigned) [Compound 249, rel-(2R*,3S*,4S*,5R*)-3-(3,4-difluoro-2-methoxyphenyl)-N-(2-(2-hydroxy-1-methoxyethyl)pyridin-4-yl)-4,5-dimethyl-5-(trifluoromethyl)tetrahydrofuran-2-carboxamide]
< 10	–	COc1c([C@H]2[C@H](C(=O)Nc3ccnc(C(O)C4CC4)c3)O[C@@](C)(C(F)(F)F)[C@H]2C)ccc(F)c1F (single isomer, unassigned) [Compound 251, rel-(2R*,3S*,4S*,5R*)-N-(2-(cyclopropyl(hydroxy)methyl)pyridin-4-yl)-3-(3,4-difluoro-2-methoxyphenyl)-4,5-dimethyl-5-(trifluoromethyl)tetrahydrofuran-2-carboxamide]
< 10	–	COc1c(C2C(C(=O)Nc3ccnc(C(O)CF)c3)OC(C)(C(F)(F)F)C2C)ccc(F)c1F (single isomer, unassigned) [Compound 252, rel-(2R*,3S*,4S*,5R*)-3-(3,4-difluoro-2-methoxyphenyl)-N-(2-(2-fluoro-1-hydroxyethyl)pyridin-4-y1)-4,5-dimethyl-5-(trifluoromethyl)tetrahydrofuran-2-carboxamide]
< 10	–	COc1c([C@H]2[C@H](C(=O)Nc3ccnc(C(O)CF)c3)O[C@@](C)(C(F)(F)F)[C@H]2C)ccc(F)c1F (single isomer, unassigned) [Compound 253, rel-(2R*,3S*,4S*,5R*)-3-(3,4-difluoro-2-methoxyphenyl)-N-(2-(2-fluoro-1-hydroxyethyl)pyridin-4-yl)-4,5-dimethyl-5-(trifluoromethyl)tetrahydrofuran-2-carboxamide]
< 10	–	COc1c([C@H]2[C@H](C(=O)Nc3ccnc(C(O)C(F)F)c3)O[C@@](C)(C(F)(F)F)[C@H]2C)ccc(F)c1F (single isomer, unassigned) [Compound 254, rel-(2R*,3S*,4S*,5R*)-N-(2-(2,2-difluoro-1-hydroxyethyl)pyridin-4-yl)-3-(3,4-difluoro-2-methoxyphenyl)-4,5-dimethyl-5-(trifluoromethyl)tetrahydrofuran-2-carboxamide]
< 10	–	CNC(c1cc(NC(=O)[C@@H]2O[C@@](C)(C(F)(F)F)[C@@H](C)[C@H]2c2ccc(F)c(F)c2OC)ccn1)C(C)(C)OC (single isomer, unassigned) [Compound 344, rel-(2R*,3S*,4S*,5R*)-3-(3,4-difluoro-2-methoxyphenyl)-N-(2-(2-methoxy-2-methyl-1-(methylamino)propyl)pyridin-4-yl)-4,5-dimethyl-5-(trifluoromethyl)-tetrahydrofuran-2-carboxamide]
10 to 100	–	COc1c([C@H]2[C@H](C(=O)Nc3ccnc(C4(N)CCOC4)c3)O[C@@](C)(C(F)(F)F)[C@H]2C)ccc(F)c1F (single isomer, unassigned) [Compound 347, rel-(2R*,3S*,4S*,5R*)-N-(2-(3-aminotetrahydrofuran-3-yl)pyridin-4-yl)-3-(3,4-difluoro-2-methoxyphenyl)-4,5-dimethyl-5-(trifluoromethyl)-tetrahydrofuran-2-carboxamide]
< 10	–	COCC(C)(N)c1cc(NC(=O)[C@@H]2O[C@@](C)(C(F)(F)F)[C@@H](C)[C@H]2c2ccc(F)c(F)c2OC)ccn1 (single isomer, unassigned) [Compound 352, rel-(2R*,3S*,4S*,5R*)-N-(2-(2-amino-1-methoxypropan-2-yl)pyridin-4-yl)-3-(3,4-difluoro-2-methoxyphenyl)-4,5-dimethyl-5-(trifluoromethyl)-tetrahydrofuran-2-carboxamide]
< 10	–	COc1c([C@H]2[C@H](C(=O)Nc3ccnc(C(C)(N)CO)c3)O[C@@](C)(C(F)(F)F)[C@H]2C)ccc(F)c1F (single isomer, unassigned) [Compound 358, rel-(2R*,3S*,4S*,5R*)-N-(2-(2-amino-1-hydroxypropan-2-yl)pyridin-4-yl)-3-(3,4-difluoro-2-methoxyphenyl)-4,5-dimethyl-5-(trifluoromethyl)-tetrahydrofuran-2-carboxamide]
